PubChem BioAssay AID248 (DTP/NCI, 2004)
Inconclusive results and toxic doses are left out. No stated cut-off is given here; in the data, active means T/C of 150% or more; inactive means T/C below 125%.

Test system: L1210 leukemia ip in BDF1 mice, survival T/C
Assay: NCI In Vivo Anticancer Drug Screen. Data for tumor model L1210 Leukemia (intraperitoneal) in B6D2F1 (BDF1) mice
Conditions: endpoint: mean survival time, higher = longer survival
In short: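 Antitumor effect is assessed in tumor-bearing animals. Survival in the compound arm is compared with a vehicle-dosed control arm and expressed as their quotient.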

[1] = dose: 100.0 mg/kg/injection, schedule: Q01DX009 (ip), vehicle: saline with Tween-80
[2] = dose: 200.0 mg/kg/injection, schedule: Q01DX009 (ip), vehicle: saline with Tween-80
[3] = dose: 400.0 mg/kg/injection, schedule: Q01DX009 (ip), vehicle: saline with Tween-80
[4] = dose: 100.0 mg/kg/injection, schedule: Q01DX009 (ip), vehicle: Klucel (hydroxypropylcellulose) (HPC)
[5] = dose: 100.0 mg/kg/injection, schedule: Q04DX003 (ip), vehicle: Klucel (hydroxypropylcellulose) (HPC)
[6] = dose: 200.0 mg/kg/injection, schedule: Q04DX003 (ip), vehicle: Klucel (hydroxypropylcellulose) (HPC)
[7] = dose: 400.0 mg/kg/injection, schedule: Q04DX003 (ip), vehicle: Klucel (hydroxypropylcellulose) (HPC)
[8] = dose: 100.0 mg/kg/injection, schedule: Q01DX001 (ip), vehicle: saline
[9] = dose: 200.0 mg/kg/injection, schedule: Q01DX001 (ip), vehicle: saline
[10] = dose: 400.0 mg/kg/injection, schedule: Q01DX001 (ip), vehicle: saline
[11] = dose: 5.0 mg/kg/injection, schedule: Q01DX001 (ip), vehicle: saline
[12] = dose: 10.0 mg/kg/injection, schedule: Q01DX001 (ip), vehicle: saline
[13] = dose: 20.0 mg/kg/injection, schedule: Q01DX001 (ip), vehicle: saline

Measured: T/C

C=CCNC(=O)Oc1cccc(NC(=O)C(C)CCC)c1 (stereo unspecified)
inactive: [1] 101 % of control | [2] 95 % of control | [3] 108 % of control

O=C1c2cc(Cl)cc(Cl)c2-c2c(NC(=O)C(Cl)Cl)cc(Cl)cc21
inactive: [4] 91 % of control | [5] 95 % of control | [6] 98 % of control | [7] 93 % of control

O=[As](O)(O)Cc1cccc(F)c1
inactive: dose: 25.0 mg/kg/injection, schedule: Q04DX003 (ip), vehicle: Klucel (hydroxypropylcellulose) (HPC) 96 % of control | dose: 50.0 mg/kg/injection, schedule: Q04DX003 (ip), vehicle: Klucel (hydroxypropylcellulose) (HPC) 101 % of control | [5] 87 % of control

Cc1ccc(CC(=O)c2c[nH]c3ccccc23)c(Cl)c1C
inactive: dose: 50.0 mg/kg/injection, schedule: Q01DX001 (ip), vehicle: saline 96 % of control | [8] 98 % of control | [9] 93 % of control | [10] 98 % of control

Cc1ccc(C)c(OC(=O)NC2CCCCC2)c1
inactive: [4] 93 % of control | [5] 101 % of control | dose: 200.0 mg/kg/injection, schedule: Q01DX009 (ip), vehicle: Klucel (hydroxypropylcellulose) (HPC) 92 % of control | [6] 104 % of control | dose: 400.0 mg/kg/injection, schedule: Q01DX009 (ip), vehicle: Klucel (hydroxypropylcellulose) (HPC) 95 % of control | [7] 98 % of control

OB(O)CI
inactive: [11] 86 % of control | [12] 95 % of control | [13] 97 % of control

CC(=O)Nc1cc(C)c(Cl)cc1Cl
inactive: dose: 31.25 mg/kg/injection, schedule: Q01DX009 (ip), vehicle: saline 103 % of control | dose: 62.5 mg/kg/injection, schedule: Q01DX009 (ip), vehicle: saline 103 % of control | dose: 100.0 mg/kg/injection, schedule: Q04DX003 (ip), vehicle: saline 100 % of control | dose: 125.0 mg/kg/injection, schedule: Q01DX009 (ip), vehicle: saline 102 % of control | dose: 200.0 mg/kg/injection, schedule: Q04DX003 (ip), vehicle: saline 105 % of control | dose: 400.0 mg/kg/injection, schedule: Q04DX003 (ip), vehicle: saline 101 % of control

CN(CSc1ccc([N+](=O)[O-])cc1)CSc1ccc([N+](=O)[O-])cc1
inactive: [8] 94 % of control | [9] 88 % of control | [10] 94 % of control

O=[N+]([O-])c1c(O)cc(O)c2ccccc12
inactive: [11] 102 % of control | [12] 106 % of control | [13] 101 % of control | dose: 40.0 mg/kg/injection, schedule: Q01DX001 (ip), vehicle: saline 102 % of control | dose: 80.0 mg/kg/injection, schedule: Q01DX001 (ip), vehicle: saline 104 % of control

O=S(=O)(C1CC1)C1CC1
inactive: dose: 100.0 mg/kg/injection, schedule: Q04DX002 (ip), vehicle: saline with Tween-80 94 % of control | dose: 200.0 mg/kg/injection, schedule: Q04DX002 (ip), vehicle: saline with Tween-80 103 % of control | dose: 400.0 mg/kg/injection, schedule: Q04DX002 (ip), vehicle: saline with Tween-80 94 % of control

COC(=O)c1ccc2oc(=O)cc(C)c2c1O
inactive: [1] 95 % of control | dose: 100.0 mg/kg/injection, schedule: Q04DX003 (ip), vehicle: saline with Tween-80 93 % of control | [2] 100 % of control | dose: 200.0 mg/kg/injection, schedule: Q04DX003 (ip), vehicle: saline with Tween-80 95 % of control | [3] 94 % of control | dose: 400.0 mg/kg/injection, schedule: Q04DX003 (ip), vehicle: saline with Tween-80 93 % of control
